Values quoted from earlier work, collected in PMC3066409 (Diabetic Medicine, 2010).
Counter-ions that a name gives are not always drawn.

Settings: prescribing information

| Compound | Drowsiness |
| --- | --- |
| CCN(CC)CCNC(=O)c1cc(Cl)c(N)cc1OC [metoclopramide] | reported adverse effect |
| Cc1nccn1CC1CCc2c(c3ccccc3n2C)C1=O (centres unmarked) [ondansetron, ondansetron hydrochloride] | reported adverse effect |
